Reference: ChEMBL document CHEMBL4706609, “Development of triazolothiadiazine derivatives as highly potent tubulin polymerization inhibitors: Structure-activity relationship, in vitro and in vivo study” (Eur J Med Chem, 2020)
The source made the active and inactive calls. The rule behind the calls is not given here.

Tests used:
A549 [1] = test: Induction of cell cycle arrest in human A549 cells assessed as accumulation at G2/M phase at 20 nM incubated for 24 hrs by flow cytometry relative to control; type: functional
A549 [2] = test: Induction of apoptosis in human A549 cells assessed as late apoptotic cells at 5 nM measured after 24 hrs by Annexin V-FITC/propidium iodide staining based flow cytometry (reference value: 1.51%); type: functional
A549 [3] = test: Induction of cell cycle arrest in human A549 cells assessed as inhibition of p-cdc2/cyclin B1 activity incubated for 24 hrs by Western blot analysis; type: functional, cell-based
A549 [4] = test: Induction of apoptosis in human A549 cells assessed as apoptotic cells upto 10 nM measured after 24 hrs by Annexin V-FITC/propidium iodide staining based flow cytometry; type: functional, cell-based; conditions: dose nM <=10, time 24.0 hrs
[5] = Toxicity in BALB/c mouse xenografted with human A549 cells assessed as change in body weight at 60 mg/kg, ip measured after 30 days; type: organism-based; conditions: in vivo, 720 h, time 30 day
A549 [6] = test: Induction of apoptosis in human A549 cells assessed as increase in cleaved caspase-3 level incubated for 24 hrs by Western blot analysis; type: functional, cell-based; conditions: dose nM <=10, time 24.0 hrs
A549 [7] = test: Induction of apoptosis in human A549 cells assessed as late apoptotic cells at 2.5 nM measured after 24 hrs by Annexin V-FITC/propidium iodide staining based flow cytometry (reference value: 1.51%); type: functional
A2780 = test: Antiproliferative activity against paclitaxel-resistant human A2780 cells assessed as reduction in cell growth after 48 hrs by MTT assay; type: functional, cell-based; conditions: A2780, 48 h
A549 [8] = test: Induction of apoptosis in human A549 cells assessed as necrotic cells at 10 nM measured after 24 hrs by Annexin V-FITC/propidium iodide staining based flow cytometry (reference value: 0.508%); type: functional
A549 [9] = test: Induction of apoptosis in human A549 cells assessed as necrotic cells at 5 nM measured after 24 hrs by Annexin V-FITC/propidium iodide staining based flow cytometry (reference value: 0.508%); type: functional
A549 [10] = test: Induction of apoptosis in human A549 cells assessed as increase in cleaved PARP level incubated for 24 hrs by Western blot analysis; type: functional, cell-based; conditions: dose nM <=10, time 24.0 hrs
[11] = Antitumor activity against human A549 cells xenografted in BALB/c mouse assessed as tumor growth inhibition at 8 mg/kg, ip measured every 2 days for every 2 days upto 30 days relative to control; type: functional; set-up: scale not given: the % may be the effect or the level left; conditions: time 2 day
[12] = Antitumor activity against human A549 cells xenografted in BALB/c mouse assessed as tumor weight at 8 mg/kg, ip measured every 2 days for every 2 days upto 30 days (reference value: 0.563 g); type: functional; conditions: time 2 day
[13] = Antitumor activity against human A549 cells xenografted in BALB/c mouse assessed as tumor growth inhibition at 15 mg/kg, ip measured every 2 days upto 30 days relative to control; type: functional; set-up: scale not given: the % may be the effect or the level left; conditions: time 30 day
A549 [14] = test: Induction of cell cycle arrest in human A549 cells assessed as accumulation at G2/M phase upto 20 nM incubated for 24 hrs by flow cytometry; type: functional, cell-based; conditions: dose nM <=20, time 24.0 hrs
[15] = Antitumor activity against human A549 cells xenografted in BALB/c mouse assessed as tumor weight at 15 mg/kg, ip measured every 2 days upto 30 days (reference value: 0.563 g); type: functional; conditions: time 2 day
A549 [16] = test: Induction of apoptosis in human A549 cells assessed as viable cells at 2.5 nM measured after 24 hrs by Annexin V-FITC/propidium iodide staining based flow cytometry (reference value: 95.3%); type: functional; conditions: read-out: Activity
[17] = Antitumor activity against human A549 cells xenografted in BALB/c mouse assessed as tumor volume at 15 mg/kg, ip measured for every 2 days upto 30 days (reference value: 652.13 mm^3); type: functional; conditions: time 2 day
A549 [18] = test: Induction of apoptosis in human A549 cells assessed as decrease in Bcl2 level upto 10 nM incubated for 24 hrs by Western blot analysis; type: functional, cell-based; conditions: dose nM <=10, time 24.0 hrs
HeLa = test: Antiproliferative activity against human HeLa cells assessed as reduction in cell growth after 48 hrs by MTT assay; type: functional, cell-based
A549 [19] = test: Antiproliferative activity against cisplatin resistant human A549 cells assessed as reduction in cell growth after 48 hrs by MTT assay; type: functional, cell-based; conditions: A549, 48 h
HT-29 = test: Antiproliferative activity against human HT-29 cells assessed as reduction in cell growth after 48 hrs by MTT assay; type: functional, cell-based; conditions: HT-29, 48 h
A549 [20] = test: Induction of apoptosis in human A549 cells assessed as viable cells at 5 nM measured after 24 hrs by Annexin V-FITC/propidium iodide staining based flow cytometry (reference value: 95.3%); type: functional; conditions: read-out: Activity
A549 [21] = test: Induction of cell cycle arrest in human A549 cells assessed as increase in p-cdc2 expression upto 10 nM incubated for 24 hrs by Western blot analysis; type: functional, cell-based; conditions: dose nM <=10, time 24.0 hrs
A549 [22] = test: Induction of apoptosis in human A549 cells assessed as necrotic cells at 2.5 nM measured after 24 hrs by Annexin V-FITC/propidium iodide staining based flow cytometry (reference value: 0.508%); type: functional
Tubulin = test: Inhibition of tubulin polymerization in human A549 cells assessed as disruption of microtubule organization at 50 nM incubated for 6 hrs by immunofluorescent staining; type: cell-based
[23] = Antitumor activity against human A549 cells xenografted in BALB/c mouse assessed as tumor volume at 8 mg/kg, ip measured for every 2 days upto 30 days (reference value: 652.13 mm^3); type: functional; conditions: time 2 day
A549 [24] = test: Induction of apoptosis in human A549 cells assessed as viable cells at 10 nM measured after 24 hrs by Annexin V-FITC/propidium iodide staining based flow cytometry (reference value: 95.3%); type: functional; conditions: read-out: Activity
A549 [25] = test: Induction of apoptosis in human A549 cells assessed as early apoptotic cells at 10 nM measured after 24 hrs by Annexin V-FITC/propidium iodide staining based flow cytometry (reference value: 2.72%); type: functional
A549 [26] = test: Induction of apoptosis in human A549 cells assessed as late apoptotic cells at 10 nM measured after 24 hrs by Annexin V-FITC/propidium iodide staining based flow cytometry (reference value: 1.51%); type: functional
[27] = Antitumor activity against human A549 cells xenografted in BALB/c mouse assessed as tumor volume at 60 mg/kg, ip measured for every 2 days upto 30 days (reference value: 652.13 mm^3); type: functional; conditions: time 2 day
[28] = Antitumor activity against human A549 cells xenografted in BALB/c mouse assessed as tumor weight at 60 mg/kg, ip measured every 2 days upto 30 days (reference value: 0.563 g); type: functional; conditions: time 2 day
HEK293 = test: Cytotoxicity against HEK293 cells assessed as reduction in cell growth after 48 hrs by MTT assay; type: cell-based; conditions: Homo sapiens, HEK293, 48 h
MCF7 = test: Antiproliferative activity against human MCF7 cells assessed as reduction in cell growth after 48 hrs by MTT assay; type: functional, cell-based; conditions: MCF7, 48 h
[29] = Toxicity in BALB/c mouse xenografted with human A549 cells assessed as change in body weight at 15 mg/kg, ip measured after 30 days; type: organism-based; conditions: in vivo, 720 h, time 30 day
A549 [30] = test: Antiproliferative activity against human A549 cells assessed as reduction in cell growth after 48 hrs by MTT assay; type: functional, cell-based; conditions: A549, 48 h
[31] = Antitumor activity against human A549 cells xenografted in BALB/c mouse assessed as tumor growth inhibition at 60 mg/kg, ip measured every 2 days upto 30 days relative to control; type: functional; set-up: scale not given: the % may be the effect or the level left; conditions: time 30 day
Sus scrofa = species on record: Sus scrofa; test: (§1) Inhibition of porcine brain tubulin polymerization measured for 20 mins by spectrometric assay; type: tissue-based
[32] = as §1; type: tissue-based, Sus scrofa
A549 [33] = test: Induction of apoptosis in human A549 cells assessed as early apoptotic cells at 2.5 nM measured after 24 hrs by Annexin V-FITC/propidium iodide staining based flow cytometry (reference value: 2.72%); type: functional
A549 [34] = test: Induction of apoptosis in human A549 cells assessed as early apoptotic cells at 5 nM measured after 24 hrs by Annexin V-FITC/propidium iodide staining based flow cytometry (reference value: 2.72%); type: functional

SMILES: COc1cc(-c2nnc3n2N=C(c2ccc(C)cc2)CS3)cc(OC)c1OC
- Activity (A549 [1]): 91.56%
- Activity (A549 [2]): 9.97%
- Activity (A549 [3]): Active
- Activity (A549 [4]): Dose-dependent effect
- Activity [5]: Non-Toxic
- Activity (A549 [6]): Dose-dependent effect
- Activity (A549 [7]): 5.36%
- IC50 (A2780): 18800 nM
- Activity (A549 [8]): 0.666%
- Activity (A549 [9]): 0.694%
- Activity (A549 [10]): Dose-dependent effect
- Activity [11]: 58.4%
- Activity [12]: 0.234 g
- Activity [13]: 29.5%
- Activity (A549 [14]): Dose-dependent effect
- Activity [15]: 0.397 g
- viability at 0.0025 µM (A549 [16]): 88.8%
- Activity [17]: 449.88 mm3
- Activity (A549 [18]): Active
- IC50 (HeLa): 4 nM
- IC50 (A549 [19]): 3950 nM
- IC50 (HT-29): 23 nM
- viability at 0.005 µM (A549 [20]): 82.8%
- Activity (A549 [21]): Dose-dependent effect
- Activity (A549 [22]): 0.529%
- IC50 (Tubulin): Active
- Activity [23]: 264 mm3
- viability at 0.01 µM (A549 [24]): 77.6%
- Activity (A549 [25]): 8.66%
- Activity (A549 [26]): 13.1%
- Activity [27]: 354.12 mm3
- Activity [28]: 0.313 g
- IC50 (HEK293): > 100000 nM
- IC50 (MCF7): 98 nM
- Activity [29]: Non-Toxic
- IC50 (A549 [30]): 50 nM
- Activity [31]: 44.4%
- inhibition (Sus scrofa): Dose-dependent effect
- IC50 [32]: 1690 nM
- Activity (A549 [33]): 5.36%
- Activity (A549 [34]): 6.58%
